Literature values as cited in patent publication US9546401B2, “Assays and methods for selecting a treatment regimen for a subject with depression” (The General Hospital Corporation, priority 2011, dated 2017).
Read-outs that look alike come from different tables or passages of the source.

Tests used:
depression = conditions: parenteral and certain oral forms; cited from earlier work
[1] = system: adults with major depression; conditions: cited from earlier work
[2] = system: adults with MDD and partial or nonresponse to an SSRI; conditions: cited from earlier work

## C[S+](CC[C@H](N)C(=O)O)C[C@H]1O[C@@H](n2cnc3c(N)ncnc32)[C@H](O)[C@@H]1O (stereo partly shown) [SAM, S-adenosyl methionine]
depression
  antidepressant efficacy: antidepressant efficacy greater than placebo and comparable to that of tricyclic antidepressants

## CNCCC(Oc1ccc(C(F)(F)F)cc1)c1ccccc1 (stereo not shown) [fluoxetine]
[1]; individuals with low or deficient serum folate
  rate of non-response: 35%
[1]; serum folate levels in the normal range
  rate of non-response: 20%

## Nc1nc2c(c(=O)[nH]1)N(C=O)C(CNc1ccc(C(=O)N[C@@H](CCC(=O)O)C(=O)O)cc1)CN2 (stereo partly shown) [folinic acid, Folinic acid]
[2]; 15-30 mg/day added to SSRIs, 8 weeks, baseline 28+/−19 ng/mL
  Folate levels after treatment: 301 ± 203 ng/mL
[2]; 16 completers, baseline 19.1+/−3.9
  HAM-D-17 score after treatment: 12.8+/−7.0
[2]; ITT sample
  remission (HAM-D-17 no greater than 7): 18%
[2]; completers
  remission (HAM-D-17 no greater than 7): 19%
  response (at least 50% reduction in HAM-D-17): 31%
[2]; in vivo
  efficacy as an adjunct in SSRI-refractory depressed individuals with normal folate levels: only modestly effective
[2]; intent-to-treat (ITT) sample
  response (at least 50% reduction in HAM-D-17): 27%
